One assay concerns UKE-1. In words: Cell growth assay, UKE-1. The note with it: Homo sapiens, UKE1, 240 h; CA, after 10 days. The assay is classed as cell-based. Here is the method:
(§1) Cell Culture. All media was supplemented with 100 U/mL penicillin and 100 μg/mL streptomycin. Human cancer cell lines were grown in the following media: MV4; 11, RS4; 11, K562, HEL, MOLM-14, MEG-01 in RPMI-1640, 10% FBS; SET-2 in RPMI-1640, 20% FBS; UKE-1 in RPMI-1640, 10% FBS, 10% horse serum and 1 μM hydrocortisone; SKNO-1 and TF-1 in RPMI-1640, 10% FBS, and 10 or 2 ng/mL GM-CSF, respectively; HaCaT in DMEM, 10% FBS; and HCT116 in McCoy's 5 A, 10% FBS (proliferation assay) or DMEM, 10% FBS (gene expression study). HepG2, MV4;11, RS4;11, MEG-01, TF-1, HCT116 and K562 were from ATCC. SKNO-1 was from DSMZ. HEL, UKE-1, and SET-2 were provided by Ross L. Levine and HaCaT, MV4;11-mCLP, and MOLM-14 by Van Wilson, Andrew L. Kung, and Scott A. Armstrong, respectively. MOLM-14 cells were authenticated by STR profiling and flow cytometry and all cell lines were routinely tested and found to be negative for mycoplasma.

The subject of another assay is HCT116. Nature of the assay: Cell growth assay, HCT116 (CellTiter-Blue). The note with it: Homo sapiens. The assay is classed as cell-based. Here is the method:
as §1
(In general: The colour change of resazurin is a common sign of viable cells or microbes.)

Another assay concerns MV4;11. Nature of the assay: Cell growth assay, MV4;11. The assay is classed as cell-based. The note with it: Homo sapiens. How it is done:
All media was supplemented with 100 U/mL penicillin and 100 μg/mL streptomycin. Human cancer cell lines were grown in the following media: MV4; 11, K562, MOLM-14 in RPMI-1640, 10% FBS; SKNO-1 in RPMI-1640, 10% FBS, and 10 ng/mL GM-CSF; MV4;11 and K562 were from ATCC. SKNO-1 was from DSMZ.
as §1

The target of the next assay is T1, CDK8 module (Homo sapiens, UniProt P49336).
T1 construct: made in house
T1 sequence (P49336 whole entry): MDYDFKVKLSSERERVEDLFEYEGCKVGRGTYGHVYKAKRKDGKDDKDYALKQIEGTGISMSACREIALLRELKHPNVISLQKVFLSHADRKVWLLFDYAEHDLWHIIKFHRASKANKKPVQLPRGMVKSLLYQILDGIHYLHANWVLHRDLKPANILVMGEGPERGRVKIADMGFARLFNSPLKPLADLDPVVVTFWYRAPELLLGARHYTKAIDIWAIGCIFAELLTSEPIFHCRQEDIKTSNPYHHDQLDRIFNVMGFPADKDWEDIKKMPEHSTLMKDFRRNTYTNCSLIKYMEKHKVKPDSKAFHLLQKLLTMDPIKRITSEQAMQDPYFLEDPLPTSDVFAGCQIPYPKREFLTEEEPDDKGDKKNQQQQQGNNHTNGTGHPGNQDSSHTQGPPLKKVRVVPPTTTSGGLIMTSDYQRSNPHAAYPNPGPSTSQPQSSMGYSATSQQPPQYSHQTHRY
T1 sequence (P24863 whole entry partner): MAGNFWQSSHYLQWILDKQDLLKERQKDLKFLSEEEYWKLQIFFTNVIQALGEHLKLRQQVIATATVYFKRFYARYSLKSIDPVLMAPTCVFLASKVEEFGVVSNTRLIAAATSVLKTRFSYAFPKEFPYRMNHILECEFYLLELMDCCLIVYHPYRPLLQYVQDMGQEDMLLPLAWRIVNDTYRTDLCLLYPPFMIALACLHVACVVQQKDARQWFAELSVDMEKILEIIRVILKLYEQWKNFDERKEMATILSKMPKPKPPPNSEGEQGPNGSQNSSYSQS
T1 sequence (Q93074 whole entry partner): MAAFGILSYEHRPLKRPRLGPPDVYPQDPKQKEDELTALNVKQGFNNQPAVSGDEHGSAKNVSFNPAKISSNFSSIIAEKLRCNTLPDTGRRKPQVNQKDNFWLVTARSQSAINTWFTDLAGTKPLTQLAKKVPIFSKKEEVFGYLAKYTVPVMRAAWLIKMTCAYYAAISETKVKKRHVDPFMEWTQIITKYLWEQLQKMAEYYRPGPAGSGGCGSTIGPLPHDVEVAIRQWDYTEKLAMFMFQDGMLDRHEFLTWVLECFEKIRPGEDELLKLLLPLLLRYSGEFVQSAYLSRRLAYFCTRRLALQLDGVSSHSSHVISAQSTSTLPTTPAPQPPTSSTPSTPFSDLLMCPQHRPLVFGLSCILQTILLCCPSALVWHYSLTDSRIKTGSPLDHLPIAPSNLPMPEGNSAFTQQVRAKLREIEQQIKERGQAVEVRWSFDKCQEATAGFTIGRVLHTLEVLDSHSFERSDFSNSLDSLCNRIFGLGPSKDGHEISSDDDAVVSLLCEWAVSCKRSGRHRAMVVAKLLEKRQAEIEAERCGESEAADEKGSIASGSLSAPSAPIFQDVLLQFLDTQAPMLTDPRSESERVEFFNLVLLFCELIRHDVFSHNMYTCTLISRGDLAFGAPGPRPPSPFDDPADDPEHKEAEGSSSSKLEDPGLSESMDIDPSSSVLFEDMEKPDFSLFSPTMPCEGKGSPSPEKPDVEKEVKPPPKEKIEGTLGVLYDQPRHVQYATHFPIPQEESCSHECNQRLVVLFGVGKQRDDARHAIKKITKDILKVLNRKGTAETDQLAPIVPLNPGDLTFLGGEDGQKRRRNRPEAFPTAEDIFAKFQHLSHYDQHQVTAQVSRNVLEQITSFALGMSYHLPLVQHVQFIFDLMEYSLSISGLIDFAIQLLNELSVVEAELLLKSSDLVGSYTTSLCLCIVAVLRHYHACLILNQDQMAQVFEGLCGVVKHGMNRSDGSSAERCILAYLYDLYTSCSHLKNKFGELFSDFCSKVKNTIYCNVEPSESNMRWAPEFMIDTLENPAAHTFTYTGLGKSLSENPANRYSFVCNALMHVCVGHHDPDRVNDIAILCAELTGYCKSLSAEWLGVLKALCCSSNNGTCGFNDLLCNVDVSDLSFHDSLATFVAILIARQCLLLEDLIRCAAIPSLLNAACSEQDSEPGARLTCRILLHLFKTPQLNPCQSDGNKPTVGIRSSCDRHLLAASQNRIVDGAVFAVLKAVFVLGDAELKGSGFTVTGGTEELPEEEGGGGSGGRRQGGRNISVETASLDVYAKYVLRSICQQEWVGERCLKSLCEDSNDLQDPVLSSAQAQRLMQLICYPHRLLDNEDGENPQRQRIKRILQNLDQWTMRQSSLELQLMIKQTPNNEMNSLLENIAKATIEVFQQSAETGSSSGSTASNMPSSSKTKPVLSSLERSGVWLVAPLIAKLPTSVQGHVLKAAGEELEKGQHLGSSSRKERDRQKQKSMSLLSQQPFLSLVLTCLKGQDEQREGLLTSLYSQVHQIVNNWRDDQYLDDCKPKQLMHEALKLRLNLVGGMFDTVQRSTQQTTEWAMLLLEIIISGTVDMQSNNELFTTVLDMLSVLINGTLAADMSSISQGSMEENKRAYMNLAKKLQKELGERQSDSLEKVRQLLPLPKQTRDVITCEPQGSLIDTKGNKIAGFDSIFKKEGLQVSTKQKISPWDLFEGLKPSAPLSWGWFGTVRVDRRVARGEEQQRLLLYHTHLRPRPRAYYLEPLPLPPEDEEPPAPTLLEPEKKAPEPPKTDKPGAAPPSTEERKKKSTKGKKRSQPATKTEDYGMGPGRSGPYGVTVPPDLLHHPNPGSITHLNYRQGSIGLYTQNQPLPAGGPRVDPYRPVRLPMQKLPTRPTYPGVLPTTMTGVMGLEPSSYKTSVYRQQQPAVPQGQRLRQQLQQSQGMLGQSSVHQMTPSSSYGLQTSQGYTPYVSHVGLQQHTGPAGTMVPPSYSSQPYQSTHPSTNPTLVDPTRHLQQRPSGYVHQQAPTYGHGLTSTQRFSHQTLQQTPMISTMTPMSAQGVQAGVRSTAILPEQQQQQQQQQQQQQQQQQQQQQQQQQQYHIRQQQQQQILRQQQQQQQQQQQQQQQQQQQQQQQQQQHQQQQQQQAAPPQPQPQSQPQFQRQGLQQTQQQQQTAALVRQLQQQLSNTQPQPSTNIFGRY
T1 sequence (Q9UHV7 whole entry partner): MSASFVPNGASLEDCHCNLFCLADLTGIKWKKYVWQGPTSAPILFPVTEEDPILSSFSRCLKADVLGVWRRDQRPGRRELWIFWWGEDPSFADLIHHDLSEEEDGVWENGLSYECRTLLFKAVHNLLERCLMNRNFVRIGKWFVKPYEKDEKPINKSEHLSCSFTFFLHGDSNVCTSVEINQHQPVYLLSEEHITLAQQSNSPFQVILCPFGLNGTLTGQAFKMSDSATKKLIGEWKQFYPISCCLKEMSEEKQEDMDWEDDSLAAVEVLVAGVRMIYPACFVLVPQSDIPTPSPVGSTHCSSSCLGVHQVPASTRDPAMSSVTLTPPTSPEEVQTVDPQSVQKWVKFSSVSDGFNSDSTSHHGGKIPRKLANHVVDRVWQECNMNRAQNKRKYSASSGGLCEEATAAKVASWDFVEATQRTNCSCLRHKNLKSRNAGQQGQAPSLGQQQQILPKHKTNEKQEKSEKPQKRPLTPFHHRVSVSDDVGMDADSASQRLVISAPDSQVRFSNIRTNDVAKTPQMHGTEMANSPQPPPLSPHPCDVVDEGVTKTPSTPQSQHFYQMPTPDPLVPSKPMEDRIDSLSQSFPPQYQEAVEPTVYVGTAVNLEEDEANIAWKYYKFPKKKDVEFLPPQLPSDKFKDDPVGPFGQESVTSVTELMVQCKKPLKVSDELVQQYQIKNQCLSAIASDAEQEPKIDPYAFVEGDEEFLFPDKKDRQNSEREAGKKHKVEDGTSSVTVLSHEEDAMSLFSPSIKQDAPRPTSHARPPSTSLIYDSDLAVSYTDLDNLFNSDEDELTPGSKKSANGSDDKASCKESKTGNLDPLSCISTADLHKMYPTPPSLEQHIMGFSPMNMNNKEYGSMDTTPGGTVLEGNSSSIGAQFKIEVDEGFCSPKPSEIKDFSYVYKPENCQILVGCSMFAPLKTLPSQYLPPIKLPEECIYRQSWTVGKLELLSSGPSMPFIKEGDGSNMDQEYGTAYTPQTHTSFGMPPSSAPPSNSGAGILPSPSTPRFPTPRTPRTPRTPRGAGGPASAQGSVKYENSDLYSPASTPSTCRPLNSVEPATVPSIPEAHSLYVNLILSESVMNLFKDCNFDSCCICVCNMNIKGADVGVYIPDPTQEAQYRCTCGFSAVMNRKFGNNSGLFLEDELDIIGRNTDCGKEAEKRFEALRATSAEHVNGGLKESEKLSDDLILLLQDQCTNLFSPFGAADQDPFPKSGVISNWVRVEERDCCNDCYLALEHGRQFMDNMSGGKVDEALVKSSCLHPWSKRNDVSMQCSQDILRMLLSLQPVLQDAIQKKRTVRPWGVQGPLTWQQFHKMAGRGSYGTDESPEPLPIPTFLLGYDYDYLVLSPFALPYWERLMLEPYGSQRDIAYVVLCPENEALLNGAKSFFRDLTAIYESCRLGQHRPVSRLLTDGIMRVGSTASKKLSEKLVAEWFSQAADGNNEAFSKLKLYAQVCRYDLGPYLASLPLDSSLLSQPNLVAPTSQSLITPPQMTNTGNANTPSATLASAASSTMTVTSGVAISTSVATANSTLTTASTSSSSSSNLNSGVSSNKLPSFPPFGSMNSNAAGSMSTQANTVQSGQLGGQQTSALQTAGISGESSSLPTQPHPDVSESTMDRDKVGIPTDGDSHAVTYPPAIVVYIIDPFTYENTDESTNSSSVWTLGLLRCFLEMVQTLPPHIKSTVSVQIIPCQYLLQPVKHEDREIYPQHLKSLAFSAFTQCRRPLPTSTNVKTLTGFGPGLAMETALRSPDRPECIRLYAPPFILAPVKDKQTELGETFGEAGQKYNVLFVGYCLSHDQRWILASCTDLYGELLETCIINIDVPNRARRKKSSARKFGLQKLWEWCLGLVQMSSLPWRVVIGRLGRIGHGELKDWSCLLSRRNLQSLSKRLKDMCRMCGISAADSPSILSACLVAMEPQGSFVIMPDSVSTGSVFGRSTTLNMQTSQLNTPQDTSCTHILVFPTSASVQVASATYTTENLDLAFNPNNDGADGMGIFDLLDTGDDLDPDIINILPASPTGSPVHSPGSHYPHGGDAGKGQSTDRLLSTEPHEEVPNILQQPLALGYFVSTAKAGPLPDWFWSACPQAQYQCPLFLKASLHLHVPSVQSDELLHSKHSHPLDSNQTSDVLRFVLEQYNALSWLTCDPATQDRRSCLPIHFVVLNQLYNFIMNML
In words: In vitro kinase assay, CDK8 module. The assay is classed as biochemical.

The subject of another assay is MEG-01. In words: Cell growth assay, MEG-01. The assay is classed as cell-based. The note with it: Homo sapiens, MEG-01, 240 h; CA, after 10 days; read-out: Mean GI50 (nM), MEG-01. How it is done:
as §1

Assay [1] deals with T2, ROCK1 in MOLM-14 cell lysate (Homo sapiens, UniProt Q13464).
T2 construct: endogenous in cells; host or cells: MOLM-14 cell lysate
In words: Native kinase capture immunoblot, ROCK1. The assay is classed as binding. How it is done:
Native Kinase Capture Immunoblot and Native Kinome-Wide Profiling. […] Experiment was performed twice with one immunoblot shown.
Background: A western blot detects proteins with antibodies after separation by electrophoresis.

Read-outs that look alike come from different tables or passages of the source.

Experimental for CDK8 module: Data was quantified with ImageJ and plotted and fitted with GraphPad Prism 6.0. For STAT1 transactivation domain (TAD), 750 ng of GST-STAT1 TAD (residues 639-750) was incubated with ˜50 ng recombinant CDK8 module at 30° C. for 8 min in kinase buffer (25 mM Tris pH 8, 2 mM DTT, 100 μM cold ATP, 100 mM KCl, 10 mM MgCl2 and 2.5 μCi [γ-^32P] ATP (Perkin Elmer) per reaction). […] 12% SDS-PAGE gels were subsequently silver stained, exposed for 18 h on a Phosphor Screen and imaged (Typhoon 9400, GE Life Sciences). For pol II CTD, 400 ng of GST-CTD (murine sequence) was incubated with ˜40 ng recombinant CDK8 module, 25 ng TFIIH, or 40 ng P-TEFb at 30° C. for 60 min in kinase buffer. Kinase amounts were chosen to give similar total pol II CTD signal. 9% SDS-PAGE gels were silver stained and exposed as above. In vitro FLAG-CDK8 kinase assays used ˜40 ng kinase and 500 ng GST-CTD. […] All experiments were performed twice.

`CN(C)[C@H]1C[C@@]23CC[C@@]4(O2)C(=CC[C@@]2(C)[C@@H](c5ccc6ccncc6c5)CC[C@H]24)C=C3[C@@H](O)[C@@H]1O` [CA, cortistatin A]: the GI50 with UKE-1 is 7 nM; in the assay with HCT116 (HCT-116, 168 h, after 7 days, read-out: Mean GI50 (nM), HCT116), more than 1000 nM; in the assay with HCT116 (HCT-116, Table 5, read-out: GI50 (nM), HCT116) it was more than 1000 nM; with MV4;11 (MV4-11, 240 h, CA, after 10 days, read-out: Mean GI50 (nM), MV4;11) it was 6 nM; with MV4;11 (MV4-11, 240 h, read-out: MV4;11 GI50 day 10), 3.5 nM; with MV4;11 (MV4-11, Table 5, read-out: GI50 (nM), MV4;11), 6 nM. Further, in the assay on MEG-01, the GI50 worked out at 9 nM. Besides, the “inhibition of kinase activity of the CDK8 module” value against CDK8 module is recorded as “potently inhibited”. Also, in assay [1], the “binding of ROCK1 (no binding up to)” value is more than 2500 nM.
